# According to ChEMBL document CHEMBL5380814, “Targeting Receptor-Interacting Protein Kinase 1 by Novel Benzothiazole Derivatives: Treatment of Acute Lung Injury through the Necroptosis Pathway” (J Med Chem, 2023):
# Activity calls are given as the source filed them. No cut-off for these calls is given here.
# Columns and labels:
# [1] = molecular target: Receptor-interacting serine/threonine-protein kinase 3 (Homo sapiens, UniProt Q9Y572); test: Binding affinity to human wildtype full length RIPK3 (M1 to Q307 residues) expressed in bacterial expression system assessed as dissociation constant by kinome scan kd select based qPCR analysis
# Sequence of Receptor-interacting serine/threonine-protein kinase 3 (Q9Y572 whole entry, the tested form may be a part): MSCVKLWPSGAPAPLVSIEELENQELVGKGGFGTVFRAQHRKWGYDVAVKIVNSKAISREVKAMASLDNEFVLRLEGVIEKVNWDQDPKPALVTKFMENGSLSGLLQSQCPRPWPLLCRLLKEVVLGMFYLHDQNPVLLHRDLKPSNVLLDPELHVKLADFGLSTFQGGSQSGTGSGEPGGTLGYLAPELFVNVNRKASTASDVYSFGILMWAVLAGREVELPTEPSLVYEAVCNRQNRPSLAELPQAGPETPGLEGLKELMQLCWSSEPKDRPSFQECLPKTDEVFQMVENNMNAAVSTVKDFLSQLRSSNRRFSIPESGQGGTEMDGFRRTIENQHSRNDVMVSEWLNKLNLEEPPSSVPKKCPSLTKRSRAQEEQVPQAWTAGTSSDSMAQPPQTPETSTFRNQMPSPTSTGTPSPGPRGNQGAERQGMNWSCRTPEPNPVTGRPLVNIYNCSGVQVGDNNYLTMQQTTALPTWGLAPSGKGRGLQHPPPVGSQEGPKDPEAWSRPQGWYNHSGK
# [2] = molecular target: T1, Receptor-interacting serine/threonine-protein kinase 1 (Homo sapiens, UniProt Q13546); test: Binding affinity to human wildtype full length RIPK1 (M1 to K305 residues) expressed in bacterial expression system assessed as dissociation constant by kinome scan kd select based qPCR analysis
# T1 sequence (Q13546 whole entry): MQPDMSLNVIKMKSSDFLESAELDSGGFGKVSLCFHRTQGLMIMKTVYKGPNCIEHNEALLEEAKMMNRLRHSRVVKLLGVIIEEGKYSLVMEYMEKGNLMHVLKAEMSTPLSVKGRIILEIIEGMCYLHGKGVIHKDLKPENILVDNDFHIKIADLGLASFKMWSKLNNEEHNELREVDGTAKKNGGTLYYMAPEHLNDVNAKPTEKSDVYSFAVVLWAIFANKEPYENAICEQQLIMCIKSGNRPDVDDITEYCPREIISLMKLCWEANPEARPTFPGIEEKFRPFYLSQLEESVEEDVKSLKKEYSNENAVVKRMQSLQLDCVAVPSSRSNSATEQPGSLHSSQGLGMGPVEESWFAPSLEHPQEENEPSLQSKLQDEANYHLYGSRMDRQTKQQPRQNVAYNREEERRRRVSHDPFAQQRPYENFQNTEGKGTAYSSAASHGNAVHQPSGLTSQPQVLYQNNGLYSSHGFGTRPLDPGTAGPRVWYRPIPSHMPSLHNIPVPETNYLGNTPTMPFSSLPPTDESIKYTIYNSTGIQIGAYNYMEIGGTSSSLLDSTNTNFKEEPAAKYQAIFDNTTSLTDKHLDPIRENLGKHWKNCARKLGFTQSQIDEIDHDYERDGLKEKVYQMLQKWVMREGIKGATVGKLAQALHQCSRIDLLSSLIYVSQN
# [3] = system: HT-29; test: Anti-necroptotic activity in human HT-29 cells assessed as inhibition of human TNFalpha/Smac mimetic/Z-VAD-FMK induced necroptosis preincubated with compound upto 50 nM for 16 to 24 hrs followed by TSZ stimulation for 12 hrs measured by cell-titre glo luminescent cell viability assay; format: functional, cell-based; conditions: time 28-36 hrs
# [4] = system: U-937; test: Anti-necroptotic activity in human U-937 cells assessed as protection against human TNFalpha/Smac mimetic/Z-VAD-FMK induced necroptosis preincubated with compound upto 50 nM for 16 to 24 hrs followed by TSZ stimulation for 12 hrs measured by cell-titre glo luminescent cell viability assay; format: functional, cell-based; conditions: time 28-36 hrs
# [5] = system: U-937; test: Anti-necroptotic activity in human U-937 cells assessed as protection against human TNFalpha/cycloheximide/Z-VAD-FMK induced necroptosis preincubated with compound at 1 to 7 uM for 16 to 24 hrs followed by TCZ stimulation for 12 hrs measured by cell-titre glo luminescent cell viability assay; format: functional, cell-based; conditions: dose 1-7 µM, time 28-36 hrs
# [6] = system: HT-29; test: Anti-necroptotic activity in human HT-29 cells assessed as protection against human TNFalpha/cycloheximide induced necroptosis preincubated with compound upto 10 uM for 16 to 24 hrs followed by TC stimulation for 24 hrs measured by cell-titre glo luminescent cell viability assay; format: functional, cell-based; conditions: time 40-48 hrs
# [7] = system: L929; test: Anti-necroptotic activity in mouse L929 cells assessed as inhibition of mouse TNFalpha/Z-VAD-FMK induced necroptosis preincubated with compound for 16 to 24 hrs followed by TZ stimulation for 12 hrs measured by cell-titre glo luminescent cell viability assay; format: functional, cell-based; conditions: dose 6.3-800 nM, time 28-36 hrs
# [8] = molecular target: T2, Receptor-interacting serine/threonine-protein kinase 1 (Homo sapiens) (UniProt Q13546); test: Inhibition of RIPK1 phosphorylation in TSZ-induced human HT-29 cells assessed as blocking of TSZ-induced necrosome formation at 0.5 uM pretreated with compound for 6 hrs followed by TSZ stimulation for 6 hrs measured by Western analysis; format: cell-based; conditions: time 12.0 hrs
# T2 sequence (whole entry): T1 sequence (Q13546 whole entry)
# [9] = molecular target: T3, Mixed lineage kinase domain-like protein (Homo sapiens) (UniProt Q8NB16); test: Inhibition of MLKLphosphorylation in TSZ-induced human HT-29 cells assessed as blocking of TSZ-induced necrosome formation upto 1 uM pretreated with compound for 6 hrs followed by TSZ stimulation for 6 hrs measured by Western analysis; format: cell-based; conditions: time 12.0 hrs
# T3 sequence (whole entry): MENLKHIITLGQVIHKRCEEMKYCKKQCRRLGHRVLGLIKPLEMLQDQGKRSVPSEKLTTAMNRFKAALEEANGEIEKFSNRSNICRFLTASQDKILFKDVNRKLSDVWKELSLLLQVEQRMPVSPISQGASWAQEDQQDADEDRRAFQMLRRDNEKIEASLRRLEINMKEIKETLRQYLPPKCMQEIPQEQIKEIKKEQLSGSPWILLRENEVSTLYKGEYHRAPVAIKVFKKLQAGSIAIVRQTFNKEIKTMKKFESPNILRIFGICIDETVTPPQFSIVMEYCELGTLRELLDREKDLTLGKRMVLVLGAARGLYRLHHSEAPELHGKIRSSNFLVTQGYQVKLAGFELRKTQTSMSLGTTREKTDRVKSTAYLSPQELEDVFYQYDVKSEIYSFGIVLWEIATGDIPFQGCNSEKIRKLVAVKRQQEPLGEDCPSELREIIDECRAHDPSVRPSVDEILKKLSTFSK
# [10] = system: Mus musculus; test: In vivo anti-inflammatory activity in NNK induced induced C57BL/6J ALI mouse model assessed as less bleeding point in lung pretreated at 25 to 100 mg/kg, ip for 1 hr followed by NNK administration by HE staining analysis; format: functional, organism-based; conditions: dose 25-100 mg/kg
# [11] = system: Mus musculus; test: In vivo anti-inflammatory activity in NNK induced induced C57BL/6J ALI mouse model assessed as mild alveolar thickening in lung pretreated at 25 to 100 mg/kg, ip for 1 hr followed by NNK administration by HE staining analysis; format: functional, organism-based; conditions: dose 25-100 mg/kg
# [12] = system: Mus musculus; test: In vivo anti-inflammatory activity in NNK induced induced C57BL/6J ALI mouse model assessed as intact alveolar structure in lung pretreated at 25 to 100 mg/kg, ip for 1 hr followed by NNK administration by HE staining analysis; format: functional, organism-based; conditions: dose 25-100 mg/kg
# [13] = system: Mus musculus; test: In vivo anti-inflammatory activity in NNK induced induced C57BL/6J ALI mouse model assessed as decrease in dry lung weight pretreated at 25 to 100 mg/kg, ip for 1 hr followed by NNK administration relative to disease model; format: functional, organism-based; conditions: dose 25-100 mg/kg
# [14] = system: Mus musculus; test: In vivo anti-inflammatory activity in NNK induced induced C57BL/6J ALI mouse model assessed as lung injury score pretreated at 100 mg/kg, ip for 1 hr followed by NNK administration relative to disease model (reference value: 5.7 +/- 0.5); format: functional
# [15] = system: Mus musculus; test: In vivo anti-inflammatory activity in NNK induced induced C57BL/6J ALI mouse model assessed as decrease in bronchoalveolar lavage fluid (BALF) total protein pretreated intraperitoneally for 1 hr followed by NNK administration; format: functional, organism-based; conditions: dose 25-100 mg/kg, route ip
# [16] = system: Mus musculus; test: In vivo anti-inflammatory activity in NNK induced induced C57BL/6J ALI mouse model assessed as decrease in lung TNF-alpha mRNA level pretreated at 25 to 100 mg/kg, ip for 1 hr followed by NNK administration; format: functional, organism-based; conditions: dose 25-100 mg/kg
structure (smiles),measurement,setting,value
CCS(=O)(=O)NC1CCC(C(=O)Nc2nc3cc(F)c(Oc4ccc(F)c(NC(=O)Cc5cccc(C(F)(F)F)c5)c4)cc3s2)CC1 (stereo unspecified),Kd,[1],> 10000 nM
same,Kd,[2],85 nM
same,Activity,[3],Dose-Dependent Effect
same,Activity,[4],inactive
same,Activity,[5],Active
same,Activity,[6],inactive
same,Activity,[7],Dose-Dependent Effect
same,inhibition,[8],Active
same,inhibition,[9],Active
same,Activity,[10],Active
same,Activity,[11],Active
same,Activity,[12],Active
same,Activity,[13],Active
same,Activity,[14],2.7
same,Activity,[15],Dose-Dependent Effect
same,Activity,[16],Active
